{"source": "patent US20240408169A1", "about": "(priority 2023, published 2024)", "key": {"OVCAR3 cells": {"test_system": "OVCAR3 cells", "assay": "MTT proliferation assay, OVCAR3;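 further: compound given as an 8- or 10-point series, one day after plating, with exposure covering roughly 3-4 cell doublings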", "type": "cell-based", "conditions": "5 days compound exposure, 1:3 serial dilution starting at 10 μM"}, "CyclinE1/CDK2": {"biological_target": "T1, CyclinE1/CDK2 (Homo sapiens, UniProt P24864)", "T1 construct": "purchased Eurofins, discovery 14-475", "assay": "Fluorescence Polarization (FP) competitive binding assay, Cyclin E1/Cdk2;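 further: readings taken after two-hour equilibration at room temperature in HEPES buffer with NaCl, DTT, NP-40 and BSA, IC50 fitted from eight-concentration serial dilution series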"}, "NCI-H1048 cells": {"test_system": "NCI-H1048 cells", "assay": "MTT proliferation assay, NCI-H1048;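 further: Dose-response in 96-well plates over 8 or 10 concentration points, with exposure spanning 3-4 cell doublings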", "type": "cell-based", "conditions": "5 days compound exposure, 1:3 serial dilution starting at 10 μM"}, "CyclinB1/CDK1": {"biological_target": "T2, CyclinB1/CDK1 (Homo sapiens, UniProt P14635)", "T2 construct": "purchased Eurofins, discovery 14-450", "assay": "Fluorescence Polarization (FP) competitive binding assay, Cyclin B1/Cdk1;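 further: fluorescence polarization read after equilibration at room temperature, with IC50 taken from serially diluted dose-response curves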"}, "CyclinA2/CDK2": {"biological_target": "T3, CyclinA2/CDK2 (Homo sapiens, UniProt P20248)", "T3 construct": "purchased CRELUX Protein Services", "assay": "Fluorescence Polarization (FP) competitive binding assay, Cyclin A2/Cdk2;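 further: plates equilibrated two hours at room temperature before polarization reading, IC50 fitted from eight-concentration compound titration curves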"}, "[1]": {"conditions": "10 nM Cyclin E1/Cdk2, 2 nM FAM probe, average of 2-3 independent experiments, read-out: Cyclin E FP IC50"}, "[2]": {"conditions": "10 nM Cyclin B1/Cdk1, 2 nM FAM probe; average of 2-3 independent experiments; read-out: Cyclin B FP IC50"}, "[3]": {"conditions": "8 nM Cyclin A2/Cdk2, 2 nM FAM probe, average of 2-3 independent experiments, read-out: Cyclin A FP IC50"}}, "note": "Read-outs that look alike come from different tables or passages of the source. *1 amine or outer side, *2 acyl side, *3 side chain or, on linkers, in order; H or OH if unused. Where a SMILES comes first, the peptide text is derived from it. Bridges are numbered along the chain shown (N, C = ends). [ ]: non-standard residue; d: D form. The star is where a group is joined. X157 = CN([C@@H](Cc1cc(Cl)ccc1-c1ccc(S(=O)(=O)N2CCOCC2)cc1)C(=O)[*:2])[*:1]; X121 = C[C@@H]1CN(c2ccc(-c3ccc(Cl)cc3C[C@@H](C(=O)[*:2])N(C)[*:1])cc2)CCO1; X179 = CN([C@@H](Cc1cc(Cl)ccc1-c1ccc(N2CCOCC2)c(C#N)c1)C(=O)[*:2])[*:1]; X172 = CC(=O)N1CC=C(c2ccc(F)cc2C[C@@H](C(=O)[*:2])N(C)[*:1])CC1; X190 = CC(=O)N1CC(Oc2ncc(Cl)cc2C[C@@H](C(=O)[*:2])N(C)[*:1])C1; X158 = CCOc1ccc(-c2ccc(Cl)cc2C[C@@H](C(=O)[*:2])N(C)[*:1])cn1; NMehhhLys(Me) = CN([C@@H](CCCCCCCN(C)[*:3])C(=O)[*:2])[*:1]; X180 = CN([C@@H](Cc1cc(F)ccc1-c1cnn2c1CCC2)C(=O)[*:2])[*:1]; NMe(hhhLys) = CN([C@@H](CCCCCCCN[*:3])C(=O)[*:2])[*:1]; cBuCO(3,3-F2-1-CF3) = O=C(C1(C(F)(F)F)CC(F)(F)C1)*; Pro(trans-4-F) = O=C(O)[C@@H]1C[C@@H](F)CN1; Gly(cPr) = N[C@H](C(=O)O)C1CC1"}
{"smiles": "CCOc1ccc(-c2ccc(Cl)cc2C[C@H]2C(=O)N(C)CCCCCCC[C@H](N(C)C(=O)[C@@H](NC(=O)[C@@H]3C[C@@H](F)CN3C(=O)C3(C(F)(F)F)CC(F)(F)C3)C3CC3)C(=O)N[C@@H](CC(C)C)C(=O)N2C)cn1", "note": "[Example 182] ({cBuCO(3,3-F2-1-CF3)}-[Pro(trans-4-F)][Gly(cPr)][NMehhhLys(Me)]L[X158]; lactam 3-C)", "values": [{"measurement": "GI50", "setting": "OVCAR3 cells", "result": 130, "unit": "nM"}, {"measurement": "IC50", "setting": "CyclinE1/CDK2; [1]", "result": 1170, "unit": "nM"}, {"measurement": "GI50", "setting": "NCI-H1048 cells", "result": 60, "unit": "nM"}, {"measurement": "IC50", "setting": "CyclinB1/CDK1; [2]", "result": 20, "unit": "nM"}, {"measurement": "IC50", "setting": "CyclinA2/CDK2; [3]", "result": 20, "unit": "nM"}]}
{"smiles": "CC(C)C[C@@H]1NC(=O)[C@@H](N(C)C(=O)[C@@H](NC(=O)[C@@H]2C[C@@H](F)CN2C(=O)C2(C(F)(F)F)CC(F)(F)C2)C2CC2)CC=CCCCCNC(=O)[C@H](Cc2cc(Cl)ccc2Oc2ncccn2)N(C)C1=O", "note": "[Example 152]", "values": [{"measurement": "GI50", "setting": "OVCAR3 cells", "result": 450, "unit": "nM"}, {"measurement": "IC50", "setting": "CyclinE1/CDK2; [1]", "result": 1900, "unit": "nM"}, {"measurement": "GI50", "setting": "NCI-H1048 cells", "result": 500, "unit": "nM"}, {"measurement": "IC50", "setting": "CyclinB1/CDK1; [2]", "result": 20, "unit": "nM"}, {"measurement": "IC50", "setting": "CyclinA2/CDK2; [3]", "result": 1020, "unit": "nM"}]}
{"smiles": "CC(C)C[C@@H]1NC(=O)[C@@H](N(C)C(=O)[C@@H](NC(=O)[C@@H]2C[C@@H](F)CN2C(=O)C2(C(F)(F)F)CC(F)(F)C2)C2CC2)CCCCCCCN(C)C(=O)[C@H](Cc2cc(Cl)ccc2-c2ccc(N3CCOCC3)c(C#N)c2)N(C)C1=O", "note": "[Example 379] ({cBuCO(3,3-F2-1-CF3)}-[Pro(trans-4-F)][Gly(cPr)][NMehhhLys(Me)]L[X179]; lactam 3-C)", "values": [{"measurement": "GI50", "setting": "OVCAR3 cells", "result": 20, "unit": "nM"}, {"measurement": "IC50", "setting": "CyclinE1/CDK2; [1]", "result": 2730, "unit": "nM"}, {"measurement": "GI50", "setting": "NCI-H1048 cells", "result": 30, "unit": "nM"}, {"measurement": "IC50", "setting": "CyclinB1/CDK1; [2]", "result": 20, "unit": "nM"}, {"measurement": "IC50", "setting": "CyclinA2/CDK2; [3]", "result": 30, "unit": "nM"}]}
{"smiles": "CC(C)C[C@@H]1NC(=O)[C@@H](N(C)C(=O)[C@@H](NC(=O)[C@@H]2C[C@@H](F)CN2C(=O)C2(C(F)(F)F)CC(F)(F)C2)C2CC2)CCCCCCCNC(=O)[C@H](Cc2cc(F)ccc2-c2cnn3c2CCC3)N(C)C1=O", "note": "[Example 214] ({cBuCO(3,3-F2-1-CF3)}-[Pro(trans-4-F)][Gly(cPr)][NMe(hhhLys)]L[X180]; lactam 3-C)", "values": [{"measurement": "GI50", "setting": "OVCAR3 cells", "result": 10, "unit": "nM"}, {"measurement": "IC50", "setting": "CyclinE1/CDK2", "result": 500, "unit": "nM"}, {"measurement": "GI50", "setting": "NCI-H1048 cells", "result": 10, "unit": "nM"}, {"measurement": "IC50", "setting": "CyclinB1/CDK1; read-out: Cyclin B FP IC50; 10 nM Cyclin B1/Cdk1, 2 nM FAM probe; average of 2-3 independent experiments", "result": 20, "unit": "nM"}, {"measurement": "IC50", "setting": "CyclinA2/CDK2", "result": 50, "unit": "nM"}]}
{"smiles": "CC(C)C[C@@H]1NC(=O)[C@@H](N(C)C(=O)[C@@H](NC(=O)[C@@H]2C[C@@H](F)CN2C(=O)C2(C(F)(F)F)CC(F)(F)C2)C2CC2)CCCCCCCN(C)C(=O)[C@H](Cc2cc(Cl)ccc2-c2ccc(S(=O)(=O)N3CCOCC3)cc2)N(C)C1=O", "note": "[Example 354] ({cBuCO(3,3-F2-1-CF3)}-[Pro(trans-4-F)][Gly(cPr)][NMehhhLys(Me)]L[X157]; lactam 3-C)", "values": [{"measurement": "GI50", "setting": "OVCAR3 cells", "result": 20, "unit": "nM"}, {"measurement": "IC50", "setting": "CyclinE1/CDK2; [1]", "result": 1340, "unit": "nM"}, {"measurement": "GI50", "setting": "NCI-H1048 cells", "result": 10, "unit": "nM"}, {"measurement": "IC50", "setting": "CyclinB1/CDK1; [2]", "result": 20, "unit": "nM"}, {"measurement": "IC50", "setting": "CyclinA2/CDK2; [3]", "result": 30, "unit": "nM"}]}
{"smiles": "CC(C)C[C@@H]1NC(=O)[C@@H](N(C)C(=O)[C@@H](NC(=O)[C@@H]2C[C@@H](F)CN2C(=O)C2(C(F)(F)F)CC(F)(F)C2)C2CC2)CC=CCCCCNC(=O)[C@H](Cc2cc(Cl)cnc2OC2CC2)N(C)C1=O", "note": "(single isomer, unassigned) [Example 102-P1]", "values": [{"measurement": "GI50", "setting": "OVCAR3 cells", "result": 810, "unit": "nM"}, {"measurement": "IC50", "setting": "CyclinE1/CDK2; [1]", "result": 1110, "unit": "nM"}, {"measurement": "GI50", "setting": "NCI-H1048 cells", "result": 350, "unit": "nM"}, {"measurement": "IC50", "setting": "CyclinB1/CDK1; [2]", "result": 20, "unit": "nM"}, {"measurement": "IC50", "setting": "CyclinA2/CDK2; [3]", "result": 310, "unit": "nM"}]}
{"smiles": "CC(=O)N1CC=C(c2ccc(F)cc2C[C@H]2C(=O)NCCCCCCC[C@H](N(C)C(=O)[C@@H](NC(=O)[C@@H]3C[C@@H](F)CN3C(=O)C3(C(F)(F)F)CC(F)(F)C3)C3CC3)C(=O)N[C@@H](CC(C)C)C(=O)N2C)CC1", "note": "[Example 217] ({cBuCO(3,3-F2-1-CF3)}-[Pro(trans-4-F)][Gly(cPr)][NMe(hhhLys)]L[X172]; lactam 3-C)", "values": [{"measurement": "GI50", "setting": "OVCAR3 cells", "result": 20, "unit": "nM"}, {"measurement": "IC50", "setting": "CyclinE1/CDK2; [1]", "result": 760, "unit": "nM"}, {"measurement": "GI50", "setting": "NCI-H1048 cells", "result": 10, "unit": "nM"}, {"measurement": "IC50", "setting": "CyclinB1/CDK1; [2]", "result": 20, "unit": "nM"}, {"measurement": "IC50", "setting": "CyclinA2/CDK2; [3]", "result": 30, "unit": "nM"}]}
{"smiles": "CC(C)C[C@@H]1NC(=O)[C@@H](N(C)C(=O)[C@@H](NC(=O)[C@@H]2C[C@@H](F)CN2C(=O)C2(C(F)(F)F)CC(F)(F)C2)C2CC2)CCCCCCCN(C)C(=O)[C@H](Cc2cc(Cl)ccc2-c2ccc(N3CCO[C@H](C)C3)cc2)N(C)C1=O", "note": "[Example 414] ({cBuCO(3,3-F2-1-CF3)}-[Pro(trans-4-F)][Gly(cPr)][NMehhhLys(Me)]L[X121]; lactam 3-C)", "values": [{"measurement": "GI50", "setting": "OVCAR3 cells", "result": 10, "unit": "nM"}, {"measurement": "IC50", "setting": "CyclinE1/CDK2; [1]", "result": 940, "unit": "nM"}, {"measurement": "GI50", "setting": "NCI-H1048 cells", "result": 10, "unit": "nM"}, {"measurement": "IC50", "setting": "CyclinB1/CDK1; [2]", "result": 20, "unit": "nM"}, {"measurement": "IC50", "setting": "CyclinA2/CDK2; [3]", "result": 30, "unit": "nM"}]}
{"smiles": "CC(=O)N1CC(Oc2ncc(Cl)cc2C[C@H]2C(=O)N(C)CCCCCCC[C@H](N(C)C(=O)[C@@H](NC(=O)[C@@H]3C[C@@H](F)CN3C(=O)C3(C(F)(F)F)CC(F)(F)C3)C3CC3)C(=O)N[C@@H](CC(C)C)C(=O)N2C)C1", "note": "[Example 324] ({cBuCO(3,3-F2-1-CF3)}-[Pro(trans-4-F)][Gly(cPr)][NMehhhLys(Me)]L[X190]; lactam 3-C)", "values": [{"measurement": "GI50", "setting": "OVCAR3 cells", "result": 80, "unit": "nM"}, {"measurement": "IC50", "setting": "CyclinE1/CDK2; [1]", "result": 520, "unit": "nM"}, {"measurement": "GI50", "setting": "NCI-H1048 cells", "result": 40, "unit": "nM"}, {"measurement": "IC50", "setting": "CyclinB1/CDK1; [2]", "result": 20, "unit": "nM"}, {"measurement": "IC50", "setting": "CyclinA2/CDK2; [3]", "result": 60, "unit": "nM"}]}
